Experiments:
[1] = molecular target: T1, human LXRα (Homo sapiens, UniProt Q13133); assay: Ligand-binding test procedure for human LXRα; conditions: competition with 3H T0901317, biotinylated hLXRα; read-out: hLXRa binding IC50
T1 construct: made in house; host or cells: E. coli
T1 sequence (Q13133 1-447): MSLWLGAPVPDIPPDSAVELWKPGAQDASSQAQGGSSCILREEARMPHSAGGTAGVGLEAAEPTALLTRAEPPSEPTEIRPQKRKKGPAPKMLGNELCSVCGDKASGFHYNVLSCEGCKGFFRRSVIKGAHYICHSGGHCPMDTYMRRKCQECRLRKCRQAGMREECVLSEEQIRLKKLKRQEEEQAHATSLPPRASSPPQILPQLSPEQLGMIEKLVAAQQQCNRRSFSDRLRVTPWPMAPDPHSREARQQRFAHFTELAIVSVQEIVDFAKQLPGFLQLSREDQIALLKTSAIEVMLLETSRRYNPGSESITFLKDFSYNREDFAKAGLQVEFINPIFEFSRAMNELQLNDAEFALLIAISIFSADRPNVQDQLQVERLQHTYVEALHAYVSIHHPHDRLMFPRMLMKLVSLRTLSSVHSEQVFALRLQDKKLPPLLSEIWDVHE
Description: II. Ligand-Binding Test Procedure for Human LXRα.
(§1) Buffer: 100 mM KCl, 100 mM TRIS (pH 7.4 at +4° C.), 8.6% glycerol, 0.1 mM PMSF*, 2 mM MTG*, 0.2% CHAPS (* not used in wash buffer)
Receptor source: E. coli extract from cells expressing biotinylated hLXRα. Extract was made in a similar buffer as above, but with 50 mM TRIS.
(§2) Washed streptavidin and coated flash plates with wash buffer. Diluted receptor extract to give Bmax˜4000 cpm and add to the wells. Wrapped the plates in aluminum foil and stored them at +4° C. over night.
(§3) Made a dilution series in DMSO of the test ligands. Made a 5 nM solution of the radioactive tracer in buffer. Mixed 2500 diluted tracer with 5 μl of the test ligand from each concentration of the dilution series. Washed the receptor-coated flash plates. Added 200 μl per well of the ligand/radiolabel mixture to the receptor-coated flash plates. Wrapped the plates in aluminum foil and incubate at +4° C. over night.
(§4) Aspirated wells, and wash the flashed plates. Sealed the plate. Measured the remaining radioactivity in the plate.

[2] = test system: ABCA1 gene; assay: Quantitative analysis of ABCA1 gene regulation in THP-1 cells; assay type: cell-based; conditions: Gene regulation by LXR (human), differentiated THP-1 cells; for EC50: 18 hrs, ABCA1 mRNA by real-time PCR; for Agonism ABCA1: LXR agonist reference at 1.0 uM as positive control
Description: III. Quantitative Analysis of ABCA1 Gene Regulation in THP-1 Cells.
The compounds of formula (I) effect on the regulation of the ABCA1 gene was evaluated using the following procedure.
Cell culture: The THP-1 monocytic cell line (ATCC # TIB-202) was obtained from American Type Culture Collection (Manassas, Va.) and cultured in RPMI 1640 medium (Gibco, Carlsbad, Calif.) containing 10% FBS, 2 mM L-glutamine, and 55 uM beta-Mercaptoethanol (BME). Cells were plated in 96-well format at a density of 7.5×10^4 in complete medium containing 50-100 ng/ml phorbal 12,13-dibutyrate (Sigma, St. Louis, Mo.) for three days to induce differentiation into adherent macrophages. Differentiated THP-1 cells were treated with test compounds or ligands dissolved in DMSO (Sigma, D-8779) in culture medium lacking phorbal ester. […] Dose response effects were measured in duplicate, in the range of 0.001 to 30 micromolar concentrations and treated cells were incubated for an additional 18 hrs prior to RNA isolation. Unstimulated cells treated with vehicle were included as negative controls on each plate. An LXR agonist reference, N-(2,2,2-trifluoro-ethyl)-N-[4-(2,2,2-trifluoro-1-hydroxy-1-trifluoromethyl-ethyl)-phenyl]-benzenesulfonamide (Schultz, Joshua R., Genes & Development (2000), 14(22), 2831-2838), was dosed at 1.0 uM and served as a positive control. In antagonist mode, the compound under study is analyzed in the presence of 150 nM GW3965, trifluoromethyl-benzyl)-(2,2-diphenyl-ethyl)-amino]-propoxy]-phenyl)-acetic acid (Collins, J. L., J. Med. Chem. (2000), 45:1963-1966.). Results of antagonist analysis are expressed as % antagonism and IC50 (in μM). RNA isolation and quantitation: Total cellular RNA was isolated from treated cells cultured in 96-well plates using PrepStation 6100 (Applied Biosystems, Foster City, Calif.), according to the manufacturer's recommendations. RNA was resuspended in ribonuclease-free water and stored at −70° C. prior to analysis. RNA concentrations were quantitated with RiboGreen test procedure, #R-11490 (Molecular Probes, Eugene, Oreg.). Gene expression analysis: Gene-specific mRNA quantitation was performed by real-time PCR with the Perkin Elmer Corp. chemistry on an ABI Prism 7700 Sequence detection system (Applied Biosystems, Foster City, Calif.) according to the manufacturer's instructions. Samples (50-100 ng) of total RNA were assayed in duplicate or triplicate in 50 ul reactions using one-step RT-PCR and the standard curve method to estimate specific mRNA concentrations. Sequences of gene-specific primer and probe sets were designed with Primer Express Software (Applied Biosystems, Foster City, Calif.). The human ABCA1 primer and probe sequences are: forward, […], reverse, […], and probe, 6FAM-[…]-TAMRA. RT and PCR reactions were performed according to PE Applied Biosystem's protocol for Taqman Gold RT-PCR or Qiagen's protocl for Quantitect probe RT-PCR. Relative levels of ABCA1 mRNA are normalized using GAPDH mRNA or 18S rRNA probe/primer sets purchased commercially (Applied Biosystems, Foster City, Calif.).
Mean, standard deviation and statistical significance of duplicate evaluations of RNA samples were assessed using ANOVA, one-way analysis of variance using SAS analysis.

[3] = molecular target: T2, human LXRβ (Homo sapiens, UniProt P55055); assay: Ligand-binding test procedure for human LXRβ; conditions: competition with 3H T0901317, biotinylated hLXRβ; read-out: hLXRb binding IC50
T2 construct: made in house; host or cells: E. coli
T2 sequence (P55055 1-460): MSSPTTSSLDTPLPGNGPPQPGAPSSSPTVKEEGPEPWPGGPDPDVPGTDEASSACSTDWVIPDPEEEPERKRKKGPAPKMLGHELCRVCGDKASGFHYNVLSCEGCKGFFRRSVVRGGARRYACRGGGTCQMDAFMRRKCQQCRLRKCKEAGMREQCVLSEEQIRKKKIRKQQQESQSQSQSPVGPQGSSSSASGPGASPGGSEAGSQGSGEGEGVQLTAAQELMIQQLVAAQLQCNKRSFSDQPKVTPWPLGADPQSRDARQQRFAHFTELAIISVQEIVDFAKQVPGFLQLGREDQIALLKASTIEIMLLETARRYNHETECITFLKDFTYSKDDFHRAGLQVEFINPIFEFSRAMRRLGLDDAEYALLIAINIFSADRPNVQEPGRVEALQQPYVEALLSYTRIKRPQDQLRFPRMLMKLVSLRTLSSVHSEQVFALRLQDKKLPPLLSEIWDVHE
Description: I. Ligand-Binding Test Procedure for Human LXRβ.
as §1
Receptor source: E. coli extract from cells expressing biotinylated hLXRβ. Extract was made in a similar buffer as above, but with 50 mM TRIS.
as §2
as §3, with “250 μl” for “2500”
as §4

IC50 [1]	EC50 [2]	IC50 [3]	SMILES	Agonism ABCA1 [2]
61.6 nM	115 nM	2.4 nM	CS(=O)(=O)c1cccc(Oc2cccc(-c3c(Cc4ccccc4)nn4c(C(F)(F)F)ccnc34)c2)c1 [Example 5, 2-benzyl-3-{3-[3-(methylsulfonyl)phenoxy]phenyl}-7-(trifluoromethyl)pyrazolo[1,5-a]pyrimidine]	98%
98.2 nM	275 nM	5.3 nM	CCS(=O)(=O)c1cccc(Oc2cccc(-c3c(Cc4ccccc4)nn4c(C(F)(F)F)ccnc34)c2)c1 [Example 6, 2-benzyl-3-(3-(3-(ethylsulfonyl)phenoxy)phenyl)-7-(trifluoromethyl)pyrazolo[1,5-a]pyrimidine]	101%
87.2 nM	724 nM	3.4 nM	O=S(=O)(CCCO)c1cccc(Oc2cccc(-c3c(Cc4ccccc4)nn4c(C(F)(F)F)ccnc34)c2)c1 [Example 7, 3-(3-(3-(2-benzyl-7-(trifluoromethyl)pyrazolo[1,5-a]pyrimidin-3-yl)phenoxy)phenylsulfonyl)propan-1-ol]	109%

— patent US20100324073A1, “Pyrazolo [1,5-A] Pyrimidine Compounds” (Wyeth LLC, priority 2007, published 2010)
